Experiments:
[1] = system: A549 cells; experiment: Apoptosis morphology, AO/EB double staining; type: cell-based, human; conditions: A549, 2, 4 and 8 µM, 48 h
Method: To explore whether compound 7h could induce apoptosis in cancer cells, A549 cells were treated with different concentrations (0, 2, 4, and 8 µM) of 7h and then stained with AO/EB double staining. In the blank control group, normal cells were stained green with AO staining solution with intact nuclei.
A549 cells were inoculated into 24-well plates and attached via cell adhesion. Then, gradient concentrations (0, 2, 4, and 8 µM) of 7h were added and co-incubated for 48 h. The cells were cleaned with ice-cold PBS, stained with AO/EB, mixed, and then incubated in cells for 5 min in darkness at 25 °C. The apoptosis morphology of the cells in each group was observed and photographed using a laser confocal microscope (LSM710, Zeiss, Oberkochen, Germany).

[2] = system: HepG2 cells; experiment: MTT anti-proliferative assay, HepG2; type: cell-based, human
Method: (§1) A series of novel enmein-type diterpenoid derivatives, 5a–m, were synthesized by introducing a side chain containing a carbamate moiety at the C-6 position of compound 4. The anticancer activities of 5a–m were tested against three human cancer cell lines and one human normal cell line by MTT assay.
(§2) Human non-small cell lung cancer cell lines (A549), human liver cancer cell lines (HepG2), human breast cancer cell lines (MCF-7), and human normal cell lines (L-02) were purchased from the cell bank of the Chinese Academy of Sciences. All cells were placed in RPMI-1640 medium (added 10% fetal bovine serum, […]) and cultured in an aseptic environment with 5% CO2 at 37 °C.
(§3) All derivatives were evaluated for their anti-proliferative activities against three cancer cell lines and one normal cell line by MTT assay. The cells in the logarithmic growth phase were inoculated into 96-well plates (3 × 10^3 cells/well) and incubated for 48 h in a sterile environment with 5% CO2 at 37 °C to make them attach via cell adhesion; then, the cells were co-incubated with target compounds for 48 h. After that, MTT solution (10 µL/well) was added to the cell culture medium to continue incubation for 4 h, following which the medium was replaced with DMSO (150 µL/well). The absorbance values at 490 nm were determined using an enzyme meter (Safire 2, Tecan, Männedorf, Switzerland) and further converted to half-inhibitory concentration values of these compounds.

[3] = system: MCF-7 cells; experiment: MTT anti-proliferative assay, MCF-7; type: cell-based; conditions: Homo sapiens, MCF7, 48 h, means ± SD of three experiments
Method: as §1, §2, §3

[4] = system: A549 cells; experiment: Cell cycle analysis, PI/RNase, flow cytometry; type: cell-based, human; conditions: 48 h
Method: Cell cycle regulation is an essential process in maintaining normal bodily functions and is often disturbed in cancer cells. The inducement of cell cycle arrest is considered a key avenue for targeted cancer therapy. As a novel enmein-type diterpenoid derivative with remarkable anti-proliferative effects against A549 cells, 7h may have the ability to induce cell cycle arrest. Therefore, A549 cells were treated with 7h, stained with PI/RNase solution, and analyzed for their cell cycle distribution by flow cytometry.
A549 cells were inoculated into 24-well plates and attached via cell adhesion. Then, gradient concentrations (0, 2, 4, and 8 µM) of 7h were added and the cells were co-incubated for 48 h. The cells were cleaned with ice-cold phosphate buffer solution (PBS), digested with trypsin, collected, and prepared as a cell suspension. The cell suspension was treated with PI/RNase staining solution, the data were gathered using a flow cytometer (FACS Calibur, BD, Milpitas, CA, USA), and the cell cycle distribution was analyzed using Flow Jo software. Three attempts were performed for each treatment to eliminate experimental bias.

## C=C1C(=O)C23C(=O)OC45CCC(C)(C)C6C(OC(=O)CCC(=O)N7CCC(c8noc9cc(F)ccc89)CC7)OCC64C2CCC1C3O5 (single isomer, unassigned; ent-6) [Compound 7h, ent-6β,14α-Dihydroxy-(1,7–1,14)-epoxy-7,15-dioxo-6,20-hemiketal-6,7-seco-16-kaurene-6β-yl 4-(4-(6-fluorobenzo[d]isoxazol-3-yl)piperidin-1-yl)-4-oxobutanoate]
[1]
  apoptosis morphology (AO/EB): generated large amounts of apoptotic cells
[2]; HepG2 cells
  anticancer activity in words, HepG2: low micro-molar-level anticancer activities
[2]; Homo sapiens, HepG2, MTT, 48 h, means ± SD of three experiments
  IC50: 6.1 ± 1.24 µM
[3]
  IC50: 6.74 ± 1.94 µM
[4]; A549, 2 µM
  cells in G0/G1 phase: 62.99%
  cells in G2/M phase: 16.21%
  cells in S phase: 20.80%
[4]; A549, 4 µM
  cells in G0/G1 phase: 71.04%
  cells in G2/M phase: 17.63%
  cells in S phase: 11.33%
[4]; A549, 8 µM
  cells in G0/G1 phase: 89.87%
  cells in G2/M phase: 3.93%
  cells in S phase: 6.10%

From publication PMC11396751, “Design, Synthesis, and Anticancer Activity of Novel Enmein-Type Diterpenoid Derivatives Targeting the PI3K/Akt/mTOR Signaling Pathway” (Molecules, 2024)
